Key:
[1] = system: NGF production in the L-M cells; assay: Enhancing activity for NGF production, Reference Example 1 method (24 hours culture, NGF enzyme immunoassay of culture medium); assay type: cell-based, murine; settings: for Enhancement Ratio (%): negative control = 100%
Protocol: L-M cells (ATCC CCL-1.2) from murine fibroblasts were suspended in an M199 medium (manufactured by ICN) containing 0.5% bactopeptone (manufactured by Gibco BRL) so as to have a concentration of 1.5×10^5 cells/mi. The suspension was put in a 96-well plate in an amount of 0.1 ml each well, and the cells were aseptically cultured. After culturing the cells for 3 days, the medium was removed therefrom, and exchanged with an M199 medium containing 0.5% bovine serum albumin (manufactured by Sigma). Caffeic acid (manufactured by Sigma, dimethyl suif oxide (DMSO) solution), a substance known to have enhancing activity for NGF production, was added to each well containing the cells, so as to have a final concentration of 0, 50, 100 or 200 μM, and the cells were cultured for 24 hours. One having a caffeic acid concentration of 0 μM was used as a negative control. In addition, the final concentration of DM50 in each well was adjusted to 0.1%. After the termination of the culture, the NGF concentration in the culture medium was determined by an enzyme immunoassay method (NGF Emax Immuno Assay System, manufactured by Promega). The degree of the enhancement for NGF production of caffeic acid at each added amount was expressed in percentage as the enhancement ratio (%) on the basis of the NGF concentration in the cell culture medium at each added amount, when the NGF concentration in the cell culture medium of the negative control was defined as 100%. The experiment was carried out twice, and an average value was taken. It was shown that the enhancing activity for NGF production of caffeic acid could be assayed by this method.
The enhancing activity for NGF production of the compound (13) (manufactured by Funakoshi) was assayed in the same manner as in Reference Example 1. The compound (13) was added so as to have a final concentration of 0, 0.5, 1, 2, 5, 10, 20 or 50 μM.
The enhancing activity for NGF production of a compound (14) (manufactured by Sigma) was assayed in the same manner as in Reference Example 1. The compound (14) was added so as to have a final concentration of 0, 50, 100 or 200 μM.
The enhancing activity for NGF production of a compound (15) (manufactured by Sigma) was assayed in the same manner as in Reference Example 1. The compound (15) was added so as to have a final concentration of 0, 12.5, 25 or 50 μM.
The enhancing activity for NGF production of a compound (16) (manufactured by Wako Pure Chemical Industries) was assayed in the same manner as in Reference Example 1. The compound (16) was added so as to have a final concentration of 0, 25, 50 or 100 μM.

NGF = assay: Content of NGF in sciatic nerves of streptozotocin-induced diabetic rats; assay type: in vivo, SD rats; settings: 4 weeks
Protocol: Male SD rats were purchased from Nippon SLC, and used for an experiment at 5 weeks old after preliminary rearing. Streptozotocin (manufactured by Nakalai Tesque) was administered intraperitoneally to the rats at a dose of 100 mg/kg body weight to induce diabetes. The rats were divided into groups according to the blood sugar level after 5 days from the administration of streptozotocin. Next, a solution prepared by dissolving butein [compound (13)] in physiological saline was administered intraperitoneally to the rats at a dose of 100 μg per 1 kg body weight. In the control group, physiological saline alone was administered in the same manner. The rats were administered for consecutive days, and sciatic nerves (about 35 mg) were enucleated after 4 weeks from the beginning of administration. The enucleated sciatic nerves were homogenized, and NGF was extracted. The content of NGF was assayed by an enzyme immunoassay method (NGF Emax Immuno Assay System, manufactured by Promega).
The numerical figures in the table are expressed by an average value±standard error of 6 cases. In addition, the asterisk * means that the group has a significant difference at a significance level of 5% or less as compared to the control group according to Student-t test. […] As described above, it was clarified that the NGF production was enhanced by the administration of butein to a living body.

CDF1 mice = assay: Toxicity on oral administration to mice; assay type: in vivo; settings: oral administration to a mouse once at 1000 mg/kg
Source text: Each of the compounds used in Example 16 was orally administered to mice in the same manner as in Test Example 1 described above.

SD rats = assay: Toxicity test in rats (Test Example 1); assay type: in vivo; settings: male SD rats
Protocol: Male SD rats were purchased from Nippon SLC, and used for an experiment from 6 week-old after preliminary rearing. A solution prepared by dissolving butein [compound (13)] in physiological saline was administered intraperitoneally, or a suspension prepared by suspending butein in 0.5% carboxymethylcellulose was given by forced oral administration, to the rats. The concentration of administration was 300 mg (N=3), 10 mg (N=3), 1 mg (N=3) or 0.1 mg (N=3) per 1 kg body weight in the case of intraperitoneal administration, and 1 g (N=2) and 0.1 g (N=3) per 1 kg body weight in the case of forced oral administration. In the control group, each of the solvents alone was administered in the same manner.

[2] = system: NGF production in the L-M cells; assay: Enhancement for NGF production by flavonols, Example 16 (24 hours culture); assay type: cell-based, rat; settings: for Enhancement of NGF production (in words): L-M cells; for Enhancement Ratio (%): negative control (distilled water) = 100%
Protocol: L-M cells (ATCC CCL-1.2) from […] fibroblasts were suspended in an M199 medium (manufactured by ICN) containing 0.5% bactopeptone (manufactured by Gibco BRL) so as to have a concentration of 1.5×10^5 cells/ml. The suspension was put in a 96-well plate in an amount of 0.1 ml each well, and the cells were aseptically cultured. After culturing the cells for 3 days, the medium was removed therefrom, and exchanged with an M199 medium containing 0.5% bovine serum albumin (manufactured by Sigma).
As the negative control, that with addition of distilled water was used. After the termination of the culture, the NGF concentration in the culture medium was assayed by an enzyme immunoassay method (NGF Emax Immuno Assay System, manufactured by Promega). The degree of the enhancement for NGF production at each added amount was expressed in percentage as the enhancement ratio (%) on the basis of the NGF concentration in the cell culture medium at each added amount when the NGF concentration in the cell culture medium of the negative control was defined as 100%. The experiment was carried out twice, and an average value was taken.
The enhancing activity for NGF production of myricitrin (manufactured by Funakoshi) was assayed in the same manner as in item (1) of Example 16. Myricitrin was added so as to have a final concentration of 0, 31.3, 62.5, 125 or 250 μM.
The enhancing activity for NGF production of quercitrin (manufactured by Sigma) was assayed in the same manner as in item (1) of Example 16. Quercitrin was added so as to have a final concentration of 0, 31.3, 62.5, 125 or 250 μM.

Row | SMILES | Enhancement of NGF production (in words) [2] | Enhancement Ratio (%) ([2]; added amount 31.3 μM) | Enhancement Ratio (%) ([2]; added amount 62.5 μM) | Enhancement Ratio (%) ([2]; added amount 125 μM) | Enhancement Ratio (%) ([2]; added amount 250 μM) | other results
1 | O=C(/C=C/c1ccc(O)c(O)c1)c1ccc(O)cc1O [Compound (13), Butein] | – | – | – | – | – | Enhancement of NGF production (in words) ([1]; L-M cells): enhanced NGF production in the L-M cells in a concentration-dependent manner; Enhancement Ratio (%) ([1]; added amount 0.5 μM): 120%; Enhancement Ratio (%) ([1]; added amount 1 μM): 462%; Enhancement Ratio (%) ([1]; added amount 2 μM): 1107%; Enhancement Ratio (%) ([1]; added amount 5 μM): 2100%; Enhancement Ratio (%) ([1]; added amount 10 μM): 3686%; Enhancement Ratio (%) ([1]; added amount 20 μM): 3927%; Enhancement Ratio (%) ([1]; added amount 50 μM): 1743%; Content of NGF (pg/Sciatic Nerves) (NGF; 100 μg per 1 kg body weight intraperitoneally, consecutive days, streptozotocin diabetic rats, average ± standard error, N = 6, * significant at 5% vs control (119.2 ± 11.7)): 187.7 ± 26.4* pg/Sciatic Nerves; Content of NGF in the nerves vs control group (in words) (NGF; 100 μg per 1 kg intraperitoneally, diabetic rats): content of NGF in the nerves was increased; Cases of death (CDF1 mice): no cases of death; Toxicity findings (death, general conditions, body weight, dissection) (SD rats; forced oral administration, 1 g and 0.1 g per 1 kg body weight): no cases of death, changes in the general conditions, suppression of the increase in the body weight or abnormal findings at the dissection were found; Toxicity findings (death, general conditions, body weight, dissection) (SD rats; intraperitoneal administration, 300 mg, 10 mg, 1 mg or 0.1 mg per 1 kg body weight): no cases of death, changes in the general conditions, suppression of the increase in the body weight or abnormal findings at the dissection were found
2 | C[C@@H]1O[C@@H](Oc2c(-c3ccc(O)c(O)c3)oc3cc(O)cc(O)c3c2=O)[C@H](O)[C@H](O)[C@H]1O [Quercitrin, quercitrin] | enhanced NGF production in the L-M cells in a concentration-dependent manner | 122% | 140% | 193% | 207% | –
3 | C[C@H]1O[C@@H](Oc2c(-c3cc(O)c(O)c(O)c3)oc3cc(O)cc(O)c3c2=O)[C@@H](O)[C@@H](O)[C@@H]1O [Myricitrin, myricitrin] | enhanced NGF production in the L-M cells in a concentration-dependent manner | 105% | 159% | 294% | 304% | –
4 | O=c1c(O)c(-c2ccc(O)c(O)c2)oc2cc(O)cc(O)c12 [Quercetin, quercetin] | enhanced NGF production in the L-M cells in a concentration-dependent manner | 122% | 108% | – | 219% | –
5 | O=c1c(O)c(-c2cc(O)c(O)c(O)c2)oc2cc(O)cc(O)c12 [Myricetin, myricetin] | enhanced NGF production in the L-M cells in a concentration-dependent manner | – | – | – | – | –

From patent US7268160B2, “Remedies” (Takara Bio, Inc., priority 2000, dated 2007)
